The assay addresses T1, full-length human Mineralocorticoid Receptor (MR) (Homo sapiens, UniProt P08235).
T1 construct: full-length human Mineralocorticoid Receptor (MR); host or cells: PathHunter CHO-K1 cells
T1 sequence (P08235 1-984): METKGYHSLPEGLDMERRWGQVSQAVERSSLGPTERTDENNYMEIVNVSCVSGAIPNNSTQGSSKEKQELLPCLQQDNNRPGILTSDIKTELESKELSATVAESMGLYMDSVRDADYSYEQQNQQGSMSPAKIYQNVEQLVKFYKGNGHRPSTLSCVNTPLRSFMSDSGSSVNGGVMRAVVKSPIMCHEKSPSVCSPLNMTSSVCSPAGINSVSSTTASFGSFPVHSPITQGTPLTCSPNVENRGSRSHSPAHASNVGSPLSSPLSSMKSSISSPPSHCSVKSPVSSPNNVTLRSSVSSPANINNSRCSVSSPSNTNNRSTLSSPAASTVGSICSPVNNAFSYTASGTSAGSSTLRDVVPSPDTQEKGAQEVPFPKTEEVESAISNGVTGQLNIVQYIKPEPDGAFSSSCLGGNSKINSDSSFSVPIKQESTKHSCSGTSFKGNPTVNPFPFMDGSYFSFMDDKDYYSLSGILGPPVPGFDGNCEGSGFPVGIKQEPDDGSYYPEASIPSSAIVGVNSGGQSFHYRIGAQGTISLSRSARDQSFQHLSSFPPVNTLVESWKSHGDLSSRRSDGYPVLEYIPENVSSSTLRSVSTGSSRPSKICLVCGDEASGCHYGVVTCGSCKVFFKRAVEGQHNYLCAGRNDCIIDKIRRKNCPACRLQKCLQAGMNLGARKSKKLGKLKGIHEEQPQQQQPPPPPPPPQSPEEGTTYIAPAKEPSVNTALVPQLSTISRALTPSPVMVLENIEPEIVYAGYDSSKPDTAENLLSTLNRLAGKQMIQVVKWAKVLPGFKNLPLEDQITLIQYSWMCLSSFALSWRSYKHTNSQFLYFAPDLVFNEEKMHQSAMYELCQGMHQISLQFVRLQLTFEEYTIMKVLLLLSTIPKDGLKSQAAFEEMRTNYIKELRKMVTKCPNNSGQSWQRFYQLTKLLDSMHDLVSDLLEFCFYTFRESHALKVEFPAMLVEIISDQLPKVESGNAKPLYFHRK
The experiment in a line: human MR NH Pro assay (PathHunter Protein:Protein interaction assay, MR antagonism). Conditions: PathHunter CHO-K1 cells that overexpress human MR, aldosterone (0.3 nM), 6 hours at 37° C., antagonist mode. Type of assay: cell-based. How it is done:
The activity of the compounds of the present invention regarding mineralocorticoid receptor antagonism was evaluated using the following assay.
Assessment of Mr Potency in HMR NH Pro Assay
The human MR NH Pro assay is a commercially available PathHunter™ Protein:Protein interaction assay (DiscoveRx; http://www.discoverx.com/nhrs/prod-nhrs.php) that measures the ability of compounds to antagonize full-length human Mineralocorticoid Receptor (MR) binding to a coactivator peptide. PathHunter™ CHO—K1 cells that overexpress human MR (Cat #93-0456C2, Lot No: 09B0913) were cultured in growth media (F12K w/Glutamine and phenol red (Gibco 11765-047) supplemented with 10% HI FBS (Gibco 16000); 0.25 mg/ml Hygromycin in PBS (Invitrogen 10687-010, 50 mg/ml); 100 I.U./mL and 100 μg/mL Pen/Strep (Gibco 15140-122); 0.6 mg/mL Geneticin).
Compounds were assessed for MR antagonist activity by incubating the cells with a titrating dose of compound in F12K w/Glutamine and phenol red culture media (Invitrogen 11765-047) supplemented with 1% Charcoal/Dextran Treated FBS (Hyclone #SH30068.01) and aldosterone (0.3 nM) for 6 hours at 37° C. […] Growth Media: • F12K w/Glutamine and phenol red (Gibco 11765-047) • 10% HI FBS (Gibco 16000) • 0.25 mg/ml Hygromycin in PBS (Invitrogen 10687-010, 50 mg/ml) • 100 I.U./mL and 100 μg/mL Pen/Strep (Gibco 15140-122) • 0.6 mg/mL Geneticin (Gibco 10131, 50 mg/ml) • 2. Assay Media: • F12K w/Glutamine and phenol red (Invitrogen 11765-047) • 1% Charcoal/Dextran Treated FBS (Hyclone #SH30068.01) • 3. 3× PathHunter Detection Reagents (Cat#93-0001) (need ˜6 ml/plate). […] Control Agonist:Aldosterone:Sigma cat# A9477 • Prepare stock solution-10 μM in DMSO kept at −20° C. • for assay, dilute in assay media to 1.8 or 6 nM (6× of final concentration=about 0.3 nM to about 1.0 nM) • 5. Cell line: PathHunter CHO—K1 MR cells Cat #93-0456C2, Lot No: 09B0913, from operation liquid nitrogen stock. • 6. Control Antagonist:Spironolactone:Sigma #S-3378 and Eplerenone Sigma #107724-20-9 (10 mM stock concentration also prepared in DMSO and stored at −20° C.). • Methods: • Assay Set up and Calculations: • 1. Cells were grown in F12+FBS+Hygromycin+pen/strep+Genetin • 2. Cells were collected with 0.05% trypsin and the cell suspension was spun and resuspended in a volume of F12+1.5% CD-FBS and counted. • 3. The cells were resuspended to 4×10^5 cells/mL. • 4. Cells were (25 μL/well) added to the wells of a 384 well plate. • 5. The plate was then incubated at 37° C. over night in a humidified incubator with 5% CO2. • 6. Test compounds were titrated starting at 4.4 mM, 10-point titration in 1:3 dilution. • 7. Aldosterone was diluted in assay media to 1.8 nM or 6 nM from 10 μM stock (final concentration to be about 0.3 nM to about 1.0 nM). • Protocol for 384 Well Plate Format: 6 Hr Treatment: • 1. Plated 10K exponentially growing cells/well (25 μL) resuspended in assay media to each well using the Multidrop (Thermo Electron) (use white wall, clear bottom assay plates (Costar #3570) and incubate overnight at 37° C., 5% CO2. • 2. 0.25 μL 120× test compound (final DMSO concentration should be <1%) was added to each well n=2, 10 point titrations starting at 36.7 μM final concentration. • 3. 5 μL 6× agonist (final aldosterone concentration should be about 0.3 nM to about 1.0 nM) was added to all wells using the PlateMate Plus.
(ThermoFisher) (except those wells in columns 23 and 24) • 4. 5 μL of assay media was added to all wells in column 23 and 24. • 5. Plates were incubated 6 hrs at 37° C., 5% CO2. • 6. 15 μL 3× DiscoveRx detection reagent was added to each well. • 7. Plates were incubated for 1 hour at room temperature (plates stored in the dark). • 8. Plates were read on Envision (PerkinElmer) luminesence plate reader and analyzed using ADA.

Drawing on patent US9193717B2, “Mineralocorticoid receptor antagonists” (Merck Sharp & Dohme Corp., priority 2011, dated 2015), this text covers IC50 for five molecules.

Structures are written as SMILES. Like-named read-outs stand apart in the source and are kept apart here.

Regarding `C[C@H](c1ccc(F)cc1)N1C(=O)O[C@](Cc2ccccc2)(c2nc3c(-c4cccnc4)cccc3[nH]2)C1=O` [Compound 36, (5R)-5-Benzyl-3-[(1R)-1-(4-fluorophenyl)ethyl]-5-(4-pyridin-3-yl-1H-benzimidazol-2-yl)-1,3-oxazolidine-2,4-dione], the 50% inhibitory concentration (IC50) (read-out: IC50 rating) lay within 100 to 500 nM. Consider `C[C@H](c1ccc(F)cc1)N1C(=O)O[C@](Cc2ccccc2)(c2nc3cc(F)c(F)cc3n2C)C1=O` [Compound 37, (5R)-5-Benzyl-5-(5,6-difluoro-1-methyl-1H-benzimidazol-2-yl)-3-[(1R)-1-(4-fluorophenyl)ethyl]-1,3-oxazolidine-2,4-dione], for which the IC50 (read-out: IC50 rating) was in the range of 100 to 500 nM. With `CCCCC[C@@H](C)N1C(=O)O[C@](Cc2ccccc2)(c2nc3cc(NS(C)(=O)=O)ccc3[nH]2)C1=O` [Example 40, N-(2-((R)-5-benzyl-3-((R)-heptan-2-yl)-2,4-dioxooxazolidin-5-yl)-1H-benzo[d]imidazol-5-yl)methanesulfonamide], under “Table 3, read-out: IC50”, the IC50 lay within 500 to 2000 nM. Regarding `CCCCCC[C@@H](C)N1C(=O)O[C@](Cc2ccc(F)cc2)(c2nc3cc(NS(C)(=O)=O)ccc3[nH]2)C1=O` [Example 41, N-(2-((R)-5-(4-fluorobenzyl)-3-((R)-octan-2-yl)-2,4-dioxooxazolidin-5-yl)-1H-benzo[d]imidazol-5-yl)methanesulfonamide], the 50% inhibitory concentration (IC50) (Table 3, read-out: IC50) was 500 to 2000 nM. Still for that read-out and setting: with `CCCCCC[C@@H](C)N1C(=O)O[C@](Cc2ccccc2)(c2nc3cc(NS(C)(=O)=O)ccc3[nH]2)C1=O` [Example 42, N-(2-((R)-5-benzyl-3-((R)-octan-2-yl)-2,4-dioxooxazolidin-5-yl)-1H-benzo[d]imidazol-5-yl)methanesulfonamide] the figure was 500 to 2000 nM.
